Experimental data taken from ChEMBL document CHEMBL5096229, “A 1,2,3-Triazole Derivative of Quinazoline Exhibits Antitumor Activity by Tethering RNF168 to SQSTM1/P62” (J Med Chem, 2022).
Activity calls are given as the source filed them. No cut-off for these calls is given here.

Legend:
[1] = Induction of P62 to RNF168 protein-protein interaction (unknown origin) by MST assay; set-up: species or system Homo sapiens
HCT-116 [2] = assay: Induction of cell cycle arrest in human HCT-116 cells assessed as accumulation at S phase at 5 uM after 24 hrs by propidium iodide-staining based flow cytometry (reference value: 17.17 +/- 0.18%); type: functional
[3] = Metabolic stability in human liver microsomes assessed as clearance at 0.5 uM by LC-MS analysis; type: ADME, Microsome
Sequestosome-1 = Sequestosome-1 (Homo sapiens, UniProt Q13501); assay: Binding affinity to P62 (unknown origin) by MST assay
HCT-116 [4] = assay: Induction of cell cycle arrest in human HCT-116 cells assessed as accumulation at G2/M phase at 5 uM after 24 hrs by propidium iodide-staining based flow cytometry (reference value: 23.25 +/- 1.38%); type: functional
U2OS [5] = assay: Induction of x-ray sensitivity in human U2OS cells; type: functional, cell-based
[6] = Cmax in BALB/c mouse at 10 mg/kg; type: ADME, organism-based; set-up: dose 10 mg/kg; settings: in vivo
[7] = AUCt in BALB/c mouse at 20 mg/kg; type: ADME, organism-based; set-up: dose 20 mg/kg; settings: in vivo
[8] = Half life in BALB/c mouse at 10 mg/kg; type: ADME, organism-based; settings: in vivo
HeLa [9] = assay: Cytotoxicity against human HeLa cells assessed as reduction in cell viability incubated for 72 hrs by MTS assay; type: functional, cell-based
MDA-MB-231 = assay: Cytotoxicity against human MDA-MB-231 cells assessed as reduction in cell viability incubated for 72 hrs by MTS assay; type: functional, cell-based; settings: MDA-MB-231, 72 h
Bacteria [10] = assay: Induction of bacteria His-tagged P62 to GST-tagged RNF168 protein-protein interaction by co-immunoprecipitation assay
A549 = assay: Cytotoxicity against human A549 cells assessed as reduction in cell viability incubated for 72 hrs by MTS assay; type: functional, cell-based; settings: A549, 72 h
HCT-116 [11] = assay: Induction of cell cycle arrest in human HCT-116 cells assessed as accumulation at G0/G1 phase at 1 uM after 24 hrs by propidium iodide-staining based flow cytometry (reference value: 58.01 +/- 1.77%); type: functional
[12] = Toxicity in BALB/c mouse assessed as diarrhea at less than 50 mg/kg, ip after 7 days; type: organism-based; settings: in vivo, 168 h, time 7 day
HCT-116 [13] = assay: Cytotoxicity against human HCT-116 cells assessed as reduction in cell viability incubated for 72 hrs by MTS assay; type: functional, cell-based; settings: HCT-116, 72 h
[14] = Clearance in BALB/c mouse at 5 mg/kg; type: ADME, organism-based; settings: in vivo
[15] = Cmax in BALB/c mouse at 5 mg/kg; type: ADME, organism-based; set-up: dose 5 mg/kg; settings: in vivo
[16] = Toxicity in BALB/c mouse assessed as animal death at less than 50 mg/kg, ip after 7 days; type: organism-based; settings: in vivo, 168 h, time 7 day
HeLa [17] = assay: Induction of x-ray sensitivity in human HeLa cells; type: functional, cell-based
HCT-116 [18] = assay: Induction of P62 to RNF168 protein-protein interaction in human HCT-116 cells lysates by co-immunoprecipitation assay; type: subcellular
MCF7 = assay: Cytotoxicity against human MCF7 cells assessed as reduction in cell viability incubated for 72 hrs by MTS assay; type: functional, cell-based; settings: MCF7, 72 h
HCT-116 [19] = assay: Induction of cell cycle arrest in human HCT-116 cells assessed as accumulation at G0/G1 phase at 2 uM after 24 hrs by propidium iodide-staining based flow cytometry (reference value: 58.01 +/- 1.77%); type: functional
MGC-803 = assay: Cytotoxicity against human MGC-803 cells assessed as reduction in cell viability incubated for 72 hrs by MTS assay; type: functional, cell-based; settings: MGC-803, 72 h
[20] = target: E3 ubiquitin-protein ligase RNF168 (Homo sapiens, UniProt Q8IYW5); assay: Inhibition of RNF168 activity in human HCT-116 cells assessed as reduction in gamma-H2AX ubiquitination by immunoblotting assay; type: cell-based
HCT-116 [21] = assay: Induction of cell cycle arrest in human HCT-116 cells assessed as accumulation at S phase at 2 uM after 24 hrs by propidium iodide-staining based flow cytometry (reference value: 17.17 +/- 0.18%); type: functional
HCT-116 [22] = assay: Induction of cell cycle arrest in human HCT-116 cells assessed as accumulation at G2/M phase at 2 uM after 24 hrs by propidium iodide-staining based flow cytometry (reference value: 23.25 +/- 1.38%); type: functional
[23] = Toxicity in BALB/c nude mouse assessed as animal death 12.5 mg/kg, ip after 7 days; type: organism-based; settings: in vivo, 168 h, time 7 day
[24] = Toxicity in BALB/c nude mouse assessed as animal death 50 mg/kg, ip after 7 days; type: organism-based; settings: in vivo, 168 h, time 7 day
[25] = Clearance in BALB/c mouse at 20 mg/kg; type: ADME, organism-based; settings: in vivo
A-375 = assay: Cytotoxicity against human A-375 cells assessed as reduction in cell viability incubated for 72 hrs by MTS assay; type: functional, cell-based; settings: A-375, 72 h
HCT-116 [26] = assay: Induction of x-ray sensitivity in human HCT-116 cells; type: functional, cell-based
[27] = Toxicity in BALB/c nude mouse assessed as diarrhea 25 mg/kg, ip after 7 days; type: organism-based; settings: in vivo, 168 h, time 7 day
[28] = Toxicity in BALB/c mouse assessed as animal death at 100 mg/kg, ip after 7 days; type: organism-based; settings: in vivo, 168 h, time 7 day
Bacteria [29] = assay: Binding affinity to N-terminal His-tagged bacteria P62; settings: filed as activator
[30] = Half life in BALB/c mouse at 20 mg/kg; type: ADME, organism-based; settings: in vivo
[31] = Cytotoxicity against human MCF-10A cells assessed as reduction in cell viability incubated for 72 hrs by MTS assay; type: toxicity, cell-based
HCT-116 [32] = assay: Antitumor activity against human HCT-116 cells xenografted with BALB/c nude mouse assessed as increase in cleaved PARP1 positive tumor cells at 5 to 10 mg/kg, ip administered every 3 days upto 22 days by immuno histochemistry assay; type: functional, organism-based; settings: dose 5-10 mg/kg, time <= 22.0 day
[33] = Toxicity in BALB/c nude mouse assessed as diarrhea 12.5 mg/kg, ip after 7 days; type: organism-based; settings: in vivo, 168 h, time 7 day
[34] = Clearance in BALB/c mouse at 10 mg/kg; type: ADME, organism-based; settings: in vivo
Bacteria [35] = assay: Induction of bacteria His-tagged P62 to GST-tagged RNF168 protein-protein interaction assessed as decrease in H2A ubiquitination level
[36] = Toxicity in BALB/c mouse assessed as diarrhea 50 mg/kg, ip after 7 days; type: organism-based; settings: in vivo, 168 h, time 7 day
HCT-116 [37] = assay: Antitumor activity against human HCT-116 cells xenografted with BALB/c nude mouse assessed as tumor growth inhibition at 5 to 10 mg/kg, ip administered every 3 days upto 22 days by H and E staining based assay; type: functional, organism-based; settings: dose 5-10 mg/kg, time <= 22.0 day
[38] = Toxicity in BALB/c mouse assessed as maximum tolerable dose; settings: in vivo
[39] = Cmax in BALB/c mouse at 20 mg/kg; type: ADME, organism-based; set-up: dose 20 mg/kg; settings: in vivo
HCT-116 [40] = assay: Induction of cell cycle arrest in human HCT-116 cells assessed as accumulation at G2/M phase at 1 uM after 24 hrs by propidium iodide-staining based flow cytometry (reference value: 23.25 +/- 1.38%); type: functional
U2OS [41] = assay: Inhibition of NHEJ-mediated double strand break repair in human U2OS cells pretreated with I-SceI for 36 hrs followed by compound addition and measured after 12 hrs; type: functional, cell-based; settings: dose 0.625-2.5 µM, DDE = dose-dependent effect

Sequence of E3 ubiquitin-protein ligase RNF168 (Q8IYW5 whole entry): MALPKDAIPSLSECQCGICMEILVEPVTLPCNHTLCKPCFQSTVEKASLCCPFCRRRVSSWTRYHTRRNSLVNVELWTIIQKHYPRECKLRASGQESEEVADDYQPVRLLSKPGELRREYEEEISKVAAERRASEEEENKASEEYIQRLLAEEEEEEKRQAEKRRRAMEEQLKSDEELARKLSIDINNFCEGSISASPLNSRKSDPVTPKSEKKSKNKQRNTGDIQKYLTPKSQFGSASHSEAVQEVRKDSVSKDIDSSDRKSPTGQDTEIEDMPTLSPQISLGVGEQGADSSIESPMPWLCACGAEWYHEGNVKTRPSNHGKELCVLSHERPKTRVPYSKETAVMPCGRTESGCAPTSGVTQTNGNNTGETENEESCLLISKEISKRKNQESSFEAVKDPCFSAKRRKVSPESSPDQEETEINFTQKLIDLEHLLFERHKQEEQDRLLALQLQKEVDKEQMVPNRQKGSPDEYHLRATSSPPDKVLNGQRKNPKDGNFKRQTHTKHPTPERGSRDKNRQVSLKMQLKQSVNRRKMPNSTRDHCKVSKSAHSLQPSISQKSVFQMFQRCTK
Sequence of Sequestosome-1 (Q13501 whole entry): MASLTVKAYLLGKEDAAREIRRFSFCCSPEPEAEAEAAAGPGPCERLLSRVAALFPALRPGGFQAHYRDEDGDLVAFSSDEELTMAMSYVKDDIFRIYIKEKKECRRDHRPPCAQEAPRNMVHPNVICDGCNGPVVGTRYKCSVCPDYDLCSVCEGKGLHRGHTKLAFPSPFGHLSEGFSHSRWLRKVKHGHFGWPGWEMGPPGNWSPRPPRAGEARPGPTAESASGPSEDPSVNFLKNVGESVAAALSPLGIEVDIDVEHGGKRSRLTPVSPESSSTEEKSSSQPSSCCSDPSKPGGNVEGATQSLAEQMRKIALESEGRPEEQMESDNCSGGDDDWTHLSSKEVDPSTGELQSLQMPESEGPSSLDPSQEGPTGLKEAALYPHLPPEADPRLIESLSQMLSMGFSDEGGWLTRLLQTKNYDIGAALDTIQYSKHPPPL

With COc1cc(-n2cc(-c3ccc4nc(N)nc(N)c4c3)nn2)cc(OC)c1OC as the molecule, how does the Kd [1] read?
Its Kd is 890 nM.

And the Activity (HCT-116 [2])?
Its Activity is 18.77%.

And the CLH [3]?
Its CLH is 1.87 mL/min.

And the Kd (Sequestosome-1)?
The Kd was 1490 nM.

And the Activity (HCT-116 [4])?
Its Activity is 35.34%.

What about the Activity (U2OS [5]) of the same molecule?
The Activity was “Active”.

And the Cmax [6]?
Its Cmax is 39.9 ng/mL.

What about the AUC(0-t) [7] of the same molecule?
The AUC(0-t) was 1000 ng·h/mL.

What about the half-life [8] of the same molecule?
The half-life was 31 h.

What about the IC50 (HeLa [9]) of the same molecule?
Its IC50 is 2480 nM.

And the IC50 (MDA-MB-231)?
Its IC50 is 1170 nM.

What about the Activity (Bacteria [10]) of the same molecule?
The Activity was “Active”.

And the IC50 (A549)?
Its IC50 is 1180 nM.

And the Activity (HCT-116 [11])?
The Activity was 53%.

What about the Activity [12] of the same molecule?
Its Activity is “Non-Toxic”.

What about the IC50 (HCT-116 [13]) of the same molecule?
Its IC50 is 360 nM.

And the clearance [14]?
Its clearance is 327 mL/min/kg.

What about the Cmax [15] of the same molecule?
Its Cmax is 26.1 ng/mL.

And the Activity [16]?
The Activity was “Non-Toxic”.

And the Activity (HeLa [17])?
Its Activity is “Active”.

And the Activity (HCT-116 [18])?
The Activity was “Active”.

What about the IC50 (MCF7) of the same molecule?
Its IC50 is 2790 nM.

And the Activity (HCT-116 [19])?
Its Activity is 52.1%.

What about the IC50 (MGC-803) of the same molecule?
Its IC50 is 1880 nM.

What about the inhibition [20] of the same molecule?
Its inhibition is “Active”.

And the Activity (HCT-116 [21])?
The Activity was 21.51%.

And the Activity (HCT-116 [22])?
Its Activity is 30.79%.

What about the Activity [23] of the same molecule?
The Activity was “Toxic”.

What about the Activity [24] of the same molecule?
The Activity was “Toxic”.

What about the clearance [25] of the same molecule?
Its clearance is 243 mL/min/kg.

What about the IC50 (A-375) of the same molecule?
The IC50 was 1930 nM.

And the Activity (HCT-116 [26])?
The Activity was “Active”.

And the Activity [27]?
The Activity was “Toxic”.

What about the Activity [28] of the same molecule?
The Activity was “Toxic”.

And the Activity (Bacteria [29])?
The Activity was “Active”.

What about the half-life [30] of the same molecule?
The half-life was 22.1 h.

What about the IC50 at 72 h [31] of the same molecule?
Its IC50 at 72 h is 6980 nM.

What about the Activity (HCT-116 [32]) of the same molecule?
Its Activity is “Active”.

And the Activity [33]?
Its Activity is “Toxic”.

What about the clearance [34] of the same molecule?
The clearance was 276 mL/min/kg.

What about the Activity (Bacteria [35]) of the same molecule?
The Activity was “Active”.

What about the Activity [36] of the same molecule?
The Activity was “Toxic”.

What about the Activity (HCT-116 [37]) of the same molecule?
Its Activity is “Active”.

What about the MTD [38] of the same molecule?
Its MTD is 50 mg/kg.

And the Cmax [39]?
Its Cmax is 52.2 ng/mL.

What about the Activity (HCT-116 [40]) of the same molecule?
Its Activity is 29.33%.

And the inhibition (U2OS [41])?
The inhibition was “Dde”.
